Reference: patent US20250388575A1, “HETEROBIFUNCTIONAL COMPOUNDS AND METHODS OF TREATING DISEASE” (Halda Therapeutics OpCo, Inc., priority 2022, published 2025)
Read-outs that look alike come from different tables or passages of the source.

Legend:
[1] = test system: T-Rex 293 cell line SC3 cells having increased expression of androgen receptor protein; assay: Cellular growth inhibition, T-Rex 293 SC3 cells with increased androgen receptor expression (doxycycline), CellTiter-Glo; format: cell-based; settings: T-Rex 293 SC3 cells with increased androgen receptor expression (exposed to 10 ng/mL doxycycline), 72 hours, CellTiter-Glo; read-out: GI50
In short: (§1)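 SC3, a T-Rex 293 clone with doxycycline-inducible wild-type androgen receptor, was seeded in phenol red-free DMEM with 10% charcoal-dextran FBS, with or without 10 ng/mL doxycycline. Compound added at 24 h (0.5% DMSO) for 72 h at 37° C. CellTiter-Glo 2.0 luminescence; GI50 from four-parameter fit.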

[2] = test system: T-Rex 293 cell line SC3 cells lacking increased expression of androgen receptor protein; assay: Cellular growth inhibition, T-Rex 293 SC3 cells lacking increased androgen receptor expression (no doxycycline), CellTiter-Glo; format: cell-based; settings: T-Rex 293 SC3 cells lacking increased androgen receptor expression (not exposed to doxycycline), 72 hours, CellTiter-Glo; read-out: GI50
In short: as §1

[3] = test system: T47D cells; assay: Cellular growth inhibition assay for T47D cells, CellTiter-Glo; format: cell-based, human; settings: 72 hours treatment, CellTiter-Glo 2.0
Procedure: T47D cells were purchased from American Type Cell Culture (ATCC Cat #HTB-133) and then seeded on poly-D-lysine coated, black clear-bottom 384-well plates at 3000/well in 25 μL Dulbecco's Modified Eagle Medium (DMEM) supplemented with 10% w/w Fetal bovine serum (FBS), 0.2 units/mL recombinant human insulin (Gibco Cat #12585014), and 1% w/w Pen-Strep. Pen-Strep is a commercially available mixture of penicillin G and streptomycin, which is used in mammalian cell culture media to prevent bacterial contamination. Dulbecco's Modified Eagle Medium (DMEM) supplemented with 10% w/w fetal bovine serum (FBS), 0.2 units/mL recombinant human insulin, and 1% w/w Pen-Strep is herein referred to as Treatment Medium. Following seeding of cells in the plates, the plates were spun at 300×g for 30 seconds, then equilibrated to room temperature for 30 minutes, and then deposited in a humidified tissue culture incubator maintained at 37° C. with 5% CO2.
At 24 hours after seeding of the cells, dilutions of test compound were prepared in DMSO and dissolved in Treatment Medium, to achieve a final DMSO concentration of 0.5% w/w, thereby providing the Test Compound Solution. A 25 μL aliquot of the Test Compound Solution was added to cells in the well plates. An equal volume of a solution containing DMSO and Treatment Medium was used as a negative control. Following treatment of cells with Test Compound Solution or said equal volume of a solution containing DMSO and Treatment Medium, the plates were spun at 300×g for 30 seconds, and then left in an incubator for 72 hours.
At the end of the treatment duration, cell viability was quantified with CellTiter-Glo 2.0 reagent (Promega Cat #G9243). For this purpose, plates were equilibrated to room temperature for 30 minutes, and then 25 μL of CellTiter-Glo 2.0 reagent was added to cells in the plate wells. Plates were then agitated on a shaker for two minutes at 500 rpm and subsequently incubated at room temperature for 10 minutes. Following incubation, the plates were spun at 3000×g for 30 seconds, then sealed with an optical adhesive cover, and luminescence readings were measured with an EnVision Plate Reader (Perkin Elmer).
Data was normalized using zero luminescence for baseline. A four-parameter non-linear regression curve fit was applied to dose-response data in GraphPad Prism data analysis software to determine the half-maximal growth inhibitory concentration (GI50) for each test compound.

[4] = test system: VCaP cells; assay: Cellular growth inhibition assay for VCaP cells, CellTiter-Glo; format: cell-based, human; settings: VCaP cells, 72 hours, CellTiter-Glo, read-out: GI50
In short: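 GI50 values come from four-parameter curve fits of luminescence data normalized to a zero baseline. Compound, in medium with 0.5% DMSO, was added one day after plating and left for 72 h before CellTiter-Glo 2.0 addition.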

Compound	GI50 [1] [µM]	GI50 [2] [µM]	GI50 [3] [µM]	GI50 [4] [µM]	GI50 ([3]; Homo sapiens) [µM]	GI50 ([4]; Homo sapiens) [µM]
CCS(=O)(=O)c1ccc(Oc2ccc(OCC3CCN(c4ccc(C(=O)N[C@H]5CC[C@H](Oc6ccc(C#N)c(Cl)c6)CC5)nn4)CC3)cc2F)c(-c2cn(C)c(=O)c3[nH]ccc23)c1 [I-43]	< 0.5	< 0.5	< 0.5	< 0.5	–	–
CCS(=O)(=O)c1ccc(Oc2ccc(OC3CC4(C3)CN(c3ccc(C(=O)N[C@H]5CC[C@H](Oc6ccc(C#N)c(Cl)c6)CC5)nn3)C4)c(F)c2)c(-c2cn(C)c(=O)c3[nH]ccc23)c1 [I-44]	< 0.5	< 0.5	–	–	< 0.5	< 0.5
CCS(=O)(=O)c1ccc(Oc2cccc(CCCOC3CC4(C3)CN(c3cnc(C(=O)N[C@H]5CC[C@H](Oc6ccc(C#N)c(Cl)c6)CC5)cn3)C4)c2F)c(-c2cn(C)c(=O)c3[nH]ccc23)c1 [I-48]	< 0.5	< 0.5	–	–	< 0.5	0.5 to 1.5
CCS(=O)(=O)c1ccc(Oc2cc(F)c(CCC3CCN(c4ccc(C(=O)N[C@H]5CC[C@H](Oc6ccc(C#N)c(Cl)c6)CC5)nn4)CC3)c(F)c2)c(-c2cn(C)c(=O)c3[nH]ccc23)c1 [I-49]	< 0.5	< 0.5	1.5 to 3	< 0.5	–	–
CCS(=O)(=O)c1ccc(Oc2c(F)cc(CCC3CCN(c4ccc(C(=O)N[C@H]5CC[C@H](Oc6ccc(C#N)c(Cl)c6)CC5)nn4)CC3)cc2F)c(-c2cn(C)c(=O)c3[nH]ccc23)c1 [I-58]	< 0.5	> 3	< 0.5	< 0.5	–	–
CCS(=O)(=O)c1ccc(Oc2ccc(C3CC4(CCN(c5ccc(C(=O)N[C@H]6CC[C@H](Oc7ccc(C#N)c(Cl)c7)CC6)nn5)CC4)C3)cc2)c(-c2cn(C)c(=O)c3[nH]ccc23)c1 [I-60]	< 0.5	< 0.5	< 0.5	< 0.5	–	–
CCS(=O)(=O)c1ccc(Oc2ccc(CCCC3CCN(c4ccc(C(=O)N[C@H]5CC[C@H](Oc6ccc(C#N)c(Cl)c6)CC5)nn4)CC3)cc2)c(-c2cn(C)c(=O)c3[nH]ccc23)c1 [I-61]	< 0.5	< 0.5	–	–	< 0.5	< 0.5
CCS(=O)(=O)c1ccc(Oc2cccc(CCCC3CCN(c4ncc(C(=O)N[C@H]5CC[C@H](Oc6ccc(C#N)c(Cl)c6)CC5)cn4)CC3)c2)c(-c2cn(C)c(=O)c3[nH]ccc23)c1 [I-66]	< 0.5	< 0.5	< 0.5	< 0.5	–	–
CCS(=O)(=O)c1ccc(Oc2ccc(CCC3CC4(C3)CN(c3ccc(C(=O)N[C@H]5CC[C@H](Oc6ccc(C#N)c(Cl)c6)CC5)nn3)C4)cc2)c(-c2cn(C)c(=O)c3[nH]ccc23)c1 [I-67]	< 0.5	< 0.5	< 0.5	< 0.5	–	–
CCS(=O)(=O)c1ccc(Oc2ccc(CCCC3CN(c4ccc(C(=O)N[C@H]5CC[C@H](Oc6ccc(C#N)c(Cl)c6)CC5)nn4)C3)cc2)c(-c2cn(C)c(=O)c3[nH]ccc23)c1 [I-68]	< 0.5	< 0.5	< 0.5	< 0.5	–	–
CCS(=O)(=O)c1ccc(Oc2ccc(CC3CC4(C3)CN(c3ccc(C(=O)N[C@H]5CC[C@H](Oc6ccc(C#N)c(Cl)c6)CC5)nn3)C4)cc2)c(-c2cn(C)c(=O)c3[nH]ccc23)c1 [I-69]	< 0.5	< 0.5	–	–	< 0.5	< 0.5
CCS(=O)(=O)c1ccc(Oc2ccc(CCC3C4CN(c5ccc(C(=O)N[C@H]6CC[C@H](Oc7ccc(C#N)c(Cl)c7)CC6)nn5)CC34)cc2)c(-c2cn(C)c(=O)c3[nH]ccc23)c1 (stereo partly drawn) [I-70]	< 0.5	< 0.5	< 0.5	< 0.5	–	–
CCS(=O)(=O)c1ccc(Oc2ccc(CCCC3C4CN(c5ccc(C(=O)N[C@H]6CC[C@H](Oc7ccc(C#N)c(Cl)c7)CC6)nn5)CC34)cc2)c(-c2cn(C)c(=O)c3[nH]ccc23)c1 (stereo partly drawn) [I-71]	< 0.5	< 0.5	–	–	< 0.5	< 0.5
CCS(=O)(=O)c1ccc(Oc2ccc(CCC3CN(c4ccc(C(=O)N[C@H]5CC[C@H](Oc6ccc(C#N)c(Cl)c6)CC5)nn4)C3)cc2)c(-c2cn(C)c(=O)c3[nH]ccc23)c1 [I-72]	< 0.5	< 0.5	< 0.5	< 0.5	–	–
CCS(=O)(=O)c1ccc(Oc2ccc(CCCCC3CN(c4ccc(C(=O)N[C@H]5CC[C@H](Oc6ccc(C#N)c(Cl)c6)CC5)nn4)C3)cc2)c(-c2cn(C)c(=O)c3[nH]ccc23)c1 [I-73]	< 0.5	< 0.5	< 0.5	< 0.5	–	–
CCS(=O)(=O)c1ccc(Oc2ccc(CN3CC4(C3)CN(c3ccc(C(=O)N[C@H]5CC[C@H](Oc6ccc(C#N)c(Cl)c6)CC5)nn3)C4)c(F)c2)c(-c2cn(C)c(=O)c3[nH]ccc23)c1 [I-74]	< 0.5	< 0.5	–	–	< 0.5	< 0.5
CCS(=O)(=O)c1ccc(Oc2ccc(CN3CCC4(CCN(c5ccc(C(=O)N[C@H]6CC[C@H](Oc7ccc(C#N)c(Cl)c7)CC6)nn5)C4)C3)c(F)c2)c(-c2cn(C)c(=O)c3[nH]ccc23)c1 (stereo partly drawn) [I-75]	< 0.5	< 0.5	–	–	< 0.5	< 0.5
Cn1cc(-c2cc(S(=O)(=O)C3CC3)ccc2Oc2ccc(CCC3CCN(c4ccc(C(=O)N[C@H]5CC[C@H](Oc6ccc(C#N)c(Cl)c6)CC5)nn4)CC3)cc2)c2cc[nH]c2c1=O [I-76]	< 0.5	< 0.5	< 0.5	< 0.5	–	–
CCS(=O)(=O)c1ccc(Oc2ccc(CC3CN(c4ccc(C(=O)N[C@H]5CC[C@H](Oc6ccc(C#N)c(Cl)c6)CC5)nn4)C3)cc2)c(-c2cn(C)c(=O)c3[nH]ccc23)c1 [I-77]	< 0.5	< 0.5	–	–	< 0.5	< 0.5
CCS(=O)(=O)c1ccc(Oc2ccc(CN3CC4(CCN(c5ccc(C(=O)N[C@H]6CC[C@H](Oc7ccc(C#N)c(Cl)c7)CC6)nn5)CC4)C3)c(F)c2)c(-c2cn(C)c(=O)c3[nH]ccc23)c1 [I-78]	< 0.5	< 0.5	–	–	< 0.5	< 0.5
CCS(=O)(=O)c1ccc(Oc2ccc(CCC3CCN(c4ccc(C(=O)N[C@H]5CC[C@H](Oc6ccc(C#N)c(Cl)c6)CC5)nn4)CC3)c(C#N)c2)c(-c2cn(C)c(=O)c3[nH]ccc23)c1 [I-79]	< 0.5	> 3	0.5 to 1.5	< 0.5	–	–
CCS(=O)(=O)c1ccc(Oc2ccc(CC3CCN(c4ccc(C(=O)N[C@H]5CC[C@H](Oc6ccc(C#N)c(Cl)c6)CC5)nn4)CC3)c(F)c2)c(-c2cn(C)c(=O)c3[nH]ccc23)c1 [I-80]	< 0.5	< 0.5	–	–	< 0.5	< 0.5
CCS(=O)(=O)c1ccc(Oc2ccc(CC3CC4(CCN(c5ccc(C(=O)N[C@H]6CC[C@H](Oc7ccc(C#N)c(Cl)c7)CC6)nn5)CC4)C3)c(F)c2)c(-c2cn(C)c(=O)c3[nH]ccc23)c1 [I-81]	< 0.5	< 0.5	–	–	< 0.5	< 0.5
CCS(=O)(=O)c1ccc(Oc2ccc(CCC3CCN(c4ccc(C(=O)N[C@H]5CC[C@H](Oc6ccc(C#N)c(Cl)c6)CC5)nn4)CC3)c(OC)c2)c(-c2cn(C)c(=O)c3[nH]ccc23)c1 [I-82]	< 0.5	< 0.5	< 0.5	< 0.5	–	–
